Molecules are shown by their SMILES.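 The compound was tested at five concentrations on cells cultured in 96-well plates, with a 48-hour exposure period. GI50 = concentration required for 50% inhibition of growth. Definition used: TGI = concentration required for complete inhibition of growth.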 Bounds are passed on as bounds.

Test systems include TK-10 renal; MOLT-4 leukemia; SK-MEL-2 melanoma; HT29 colon; A549 NSCLC; SF-295 CNS; NCI-H226 lung; A498 renal.
Holding throughout (assay): NCI anticancer screen, dose series, 48 h

For the compound `COc1ccc(C#Cc2ccc(=O)oc2-c2cc(OC)c(OC)c(OC)c2)cc1O`, the GI50 was 21.8 µM in the assay on TK-10 renal; 6.3 µM in the assay on MOLT-4 leukemia; 6740 nM in the assay with SK-MEL-2 melanoma; 7980 nM in the assay on HT29 colon; 7080 nM in the assay with A549 NSCLC; 4490 nM in the assay with SF-295 CNS. In addition, the GI50 is over 34 µM with NCI-H226 lung and 10100 nM in the assay with A498 renal. Also, the TGI in the assay on TK-10 renal was over 100 µM; with MOLT-4 leukemia it was over 100 µM; in the assay with SK-MEL-2 melanoma, over 100 µM; with HT29 colon, over 35.6 µM; with A549 NSCLC, over 100 µM; with SF-295 CNS it was over 45.2 µM. Further, the TGI was over 100 µM with NCI-H226 lung and over 83.1 µM with A498 renal.
Regarding `O=C(CC1(O)C(=O)N(Cc2ccccc2)c2ccc(Cl)cc21)c1ccc(C(=O)NCC2CCC3(CC2)OOC2(CCCCC2)OO3)cc1` (stereo unspecified), the GI50 in the assay with TK-10 renal is 0.181 µM; in the assay on MOLT-4 leukemia it was 1.59 µM; in the assay on SK-MEL-2 melanoma it was 1870 nM; in the assay with HT29 colon, 236 nM; in the assay on A549 NSCLC, 215 nM; with SF-295 CNS, 570 nM. The GI50 in the assay on NCI-H226 lung is 1.72 µM; in the assay with A498 renal it was 1770 nM. For the same compound, the TGI in the assay with TK-10 renal was 0.358 µM; in the assay with MOLT-4 leukemia it was 4.56 µM; with SK-MEL-2 melanoma it was 4.41 µM; in the assay with HT29 colon, 0.544 µM; with A549 NSCLC, 0.456 µM; with SF-295 CNS, 1.34 µM. In addition, the values for the TGI in the assay with NCI-H226 lung and in the assay on A498 renal were 9.06 µM and 4.13 µM, respectively.
For `O=C1C(=C(C(F)(F)Cl)C(F)(F)Cl)C2CCC1C2` (stereo unspecified), the TGI in the assay on TK-10 renal was 4.29 µM; with MOLT-4 leukemia, over 3.53 µM; in the assay with SK-MEL-2 melanoma, 4.21 µM; in the assay on HT29 colon it was 5.57 µM; in the assay on A549 NSCLC, over 10 µM; in the assay with SF-295 CNS it was over 10 µM. The TGI in the assay with NCI-H226 lung is over 9.06 µM; in the assay with A498 renal, over 10 µM.
Take `O=C1CSC(=S)N1c1ccco1`: the TGI in the assay with TK-10 renal, with MOLT-4 leukemia, in the assay on SK-MEL-2 melanoma, in the assay on HT29 colon, in the assay on A549 NSCLC and in the assay on SF-295 CNS was over 100 µM throughout. Also, the TGI with NCI-H226 lung and with A498 renal was over 100 µM in each case.
Turning to `Cc1ccc2oc(=O)cc(/C(=C3/C=CC=N3)c3ccc[nH]3)c2c1`, the GI50 in the assay on TK-10 renal was 0.47 µM; in the assay with MOLT-4 leukemia it was 0.378 µM; in the assay with SK-MEL-2 melanoma it was 740 nM; with HT29 colon it was 349 nM; in the assay on A549 NSCLC, 590 nM; in the assay with SF-295 CNS, 215 nM. Moreover, the results for the GI50 with NCI-H226 lung and with A498 renal were 0.753 µM and 269 nM, respectively. Besides, the TGI was 4.87 µM in the assay on TK-10 renal; 2.14 µM in the assay with MOLT-4 leukemia; 2.89 µM in the assay on SK-MEL-2 melanoma; 1.42 µM in the assay with HT29 colon; 10.9 µM in the assay on A549 NSCLC; 0.667 µM in the assay with SF-295 CNS. The TGI with NCI-H226 lung came out at 4.58 µM; in the assay with A498 renal, 0.92 µM.
For `CC(=O)O[C@H]([C@H](OC(C)=O)[C@H](C)OC(C)=O)[C@@H](/C=C/[C@@H]1CC=CC(=O)O1)OC(C)=O`, the GI50 was over 100 µM in the assay with TK-10 renal; over 100 µM in the assay with MOLT-4 leukemia; 24000 nM in the assay with SK-MEL-2 melanoma; 72100 nM in the assay on HT29 colon; over 100000 nM in the assay on A549 NSCLC; 15800 nM in the assay with SF-295 CNS. Moreover, the results for the GI50 with NCI-H226 lung and in the assay with A498 renal were over 100 µM and 50200 nM, respectively. Besides, the TGI with TK-10 renal is over 100 µM; with MOLT-4 leukemia it was over 100 µM; in the assay with SK-MEL-2 melanoma it was 74.4 µM; in the assay on HT29 colon, over 100 µM; in the assay with A549 NSCLC, over 100 µM; in the assay on SF-295 CNS it was 45.9 µM. Besides, the TGI in the assay on NCI-H226 lung and with A498 renal was over 100 µM in each case.
As for `CC1(C)S[C@@H]2[C@H](N3C(=O)c4ccccc4C3=O)CN2[C@H]1NC(=O)N[C@@H]1N2C[C@@H](N3C(=O)c4ccccc4C3=O)[C@H]2SC1(C)C`, the TGI in the assay with TK-10 renal, with MOLT-4 leukemia, with SK-MEL-2 melanoma, in the assay with HT29 colon, with A549 NSCLC and in the assay with SF-295 CNS was over 100 µM throughout. The TGI with NCI-H226 lung and with A498 renal was over 100 µM each time.
For `N#Cc1c(NCc2ccccc2)nc(NCc2ccccc2)c(C#N)c1-c1ccc(O)cc1`, the GI50 with TK-10 renal was 22.6 µM; with MOLT-4 leukemia, 20.4 µM; in the assay with SK-MEL-2 melanoma, 41100 nM; in the assay with HT29 colon, 60200 nM; in the assay on A549 NSCLC it was 34100 nM; in the assay on SF-295 CNS, 27100 nM. The results for the GI50 with NCI-H226 lung and in the assay on A498 renal were 14.3 µM and 24900 nM, respectively. For the same compound, the TGI in the assay with TK-10 renal is 69.4 µM; in the assay with MOLT-4 leukemia, over 100 µM; with SK-MEL-2 melanoma it was 90.7 µM; in the assay with HT29 colon, over 100 µM; with A549 NSCLC, over 100 µM; in the assay with SF-295 CNS it was over 100 µM. Moreover, the results for the TGI in the assay on NCI-H226 lung and with A498 renal were 67.1 µM and 63.5 µM, respectively.
As for `CN(C)CCCN(CCC1CCCCC1)CCC1CCCCC1`, the GI50 in the assay on TK-10 renal was 2.5 µM; in the assay on MOLT-4 leukemia, 1.85 µM; in the assay with SK-MEL-2 melanoma, 1930 nM; in the assay with HT29 colon it was 730 nM; with A549 NSCLC, 2690 nM; with SF-295 CNS, 1950 nM. Besides, the figures for the GI50 in the assay with NCI-H226 lung and in the assay on A498 renal were 12.1 µM and 2870 nM, respectively. For the same compound, the TGI is 8.92 µM with TK-10 renal; 7.93 µM with MOLT-4 leukemia; 3.73 µM with SK-MEL-2 melanoma; 6.81 µM in the assay on HT29 colon; 8.5 µM in the assay on A549 NSCLC; 4.51 µM with SF-295 CNS. The results for the TGI in the assay with NCI-H226 lung and in the assay on A498 renal were 26.7 µM and 9.61 µM, respectively.
With `COc1ccc(C=Nc2c(C(=O)Nc3cccc(Cl)c3C)sc3nc(C)c(C(=O)/C=C/c4ccc(OC)cc4)cc23)cc1`, the GI50 in the assay with TK-10 renal was 4.12 µM; in the assay with MOLT-4 leukemia, 3.68 µM; in the assay with SK-MEL-2 melanoma it was 980 nM; in the assay with HT29 colon it was 306 nM; in the assay with A549 NSCLC, 1610 nM; in the assay on SF-295 CNS, 362 nM. For the same compound, the GI50 in the assay with NCI-H226 lung is 0.621 µM; in the assay on A498 renal, 196 nM. Further, the TGI with TK-10 renal was over 50 µM; in the assay on MOLT-4 leukemia it was over 50 µM; in the assay on SK-MEL-2 melanoma, 36.1 µM; in the assay with HT29 colon, over 50 µM; in the assay with A549 NSCLC it was over 50 µM; in the assay on SF-295 CNS, 8.43 µM. For the same compound, the values for the TGI in the assay on NCI-H226 lung and in the assay on A498 renal were 11.7 µM and 2.49 µM, respectively.

(Values after PubChem BioAssay (NCI).)
